{
  "source": "patent US9308174B2",
  "about": "“Lyophilized formulations of bendamustine hydrochloride” (CHEMI S.P.A., priority 2013, dated 2016)",
  "origin": "cited, not measured here",
  "key": {"[1]": {"conditions": "water, 5° C."}},
  "note": "Read-outs that look alike come from different tables or passages of the source.",
  "data": [
    {"smiles": "Cl.Cn1c(CCCC(=O)O)nc2cc(N(CCCl)CCCl)ccc21", "note": "[bendamustine hydrochloride, Bendamustine hydrochloride]", "values": [
      {"measurement": "HP1 percentage", "setting": "[1]; after 3 hours", "value": 0.86, "unit": "%"},
      {"measurement": "HP1 percentage", "setting": "[1]; after 6 hours", "value": 3.81, "unit": "%"},
      {"measurement": "appearance of the solution", "setting": "[1]; after 6 hours", "value": "formation of a precipitate"},
      {"measurement": "HP1 percentage", "setting": "[1]; time=0", "value": 0.6, "unit": "%"},
      {"measurement": "time to 10% degradation of the active ingredient", "setting": "aqueous solution 0.25 mg/ml, room temperature", "value": 4.2, "unit": "h"},
      {"measurement": "time to lose 10% of its title (t90)", "setting": "solution at 4° C.", "value": 119.5, "unit": "h"},
      {"measurement": "time to lose 10% of its title (t90)", "setting": "solution at 23° C.", "value": 9.2, "unit": "h"}
    ]}
  ]
}
